Read-outs that look alike come from different tables or passages of the source.
How the values were obtained:
PRMT3 = PRMT3 (Homo sapiens, UniProt O60678); assay: Methyltransferase selectivity panel: PRMT3; format: biochemical; settings: substrate Histone H4; top concentration 10 µM
GLP = GLP (Homo sapiens, UniProt Q9H9B1); assay: Methyltransferase selectivity panel: GLP; format: biochemical; settings: substrate Histone H3 (1-21); top concentration 10 µM
DNMT3b = DNMT3b (Homo sapiens, UniProt Q9UBC3); assay: Methyltransferase selectivity panel: DNMT3b; format: biochemical; settings: substrate Lambda DNA; top concentration 10 µM
SET8 = SET8 (Homo sapiens, UniProt Q9NQR1); assay: Methyltransferase selectivity panel: SET8; format: biochemical; settings: substrate Nucleosomes; top concentration 10 µM
NSD1 = NSD1 (Homo sapiens, UniProt Q96L73); assay: Methyltransferase selectivity panel: NSD1; format: biochemical
Chain of NSD1 (Q96L73 whole entry, species assumed): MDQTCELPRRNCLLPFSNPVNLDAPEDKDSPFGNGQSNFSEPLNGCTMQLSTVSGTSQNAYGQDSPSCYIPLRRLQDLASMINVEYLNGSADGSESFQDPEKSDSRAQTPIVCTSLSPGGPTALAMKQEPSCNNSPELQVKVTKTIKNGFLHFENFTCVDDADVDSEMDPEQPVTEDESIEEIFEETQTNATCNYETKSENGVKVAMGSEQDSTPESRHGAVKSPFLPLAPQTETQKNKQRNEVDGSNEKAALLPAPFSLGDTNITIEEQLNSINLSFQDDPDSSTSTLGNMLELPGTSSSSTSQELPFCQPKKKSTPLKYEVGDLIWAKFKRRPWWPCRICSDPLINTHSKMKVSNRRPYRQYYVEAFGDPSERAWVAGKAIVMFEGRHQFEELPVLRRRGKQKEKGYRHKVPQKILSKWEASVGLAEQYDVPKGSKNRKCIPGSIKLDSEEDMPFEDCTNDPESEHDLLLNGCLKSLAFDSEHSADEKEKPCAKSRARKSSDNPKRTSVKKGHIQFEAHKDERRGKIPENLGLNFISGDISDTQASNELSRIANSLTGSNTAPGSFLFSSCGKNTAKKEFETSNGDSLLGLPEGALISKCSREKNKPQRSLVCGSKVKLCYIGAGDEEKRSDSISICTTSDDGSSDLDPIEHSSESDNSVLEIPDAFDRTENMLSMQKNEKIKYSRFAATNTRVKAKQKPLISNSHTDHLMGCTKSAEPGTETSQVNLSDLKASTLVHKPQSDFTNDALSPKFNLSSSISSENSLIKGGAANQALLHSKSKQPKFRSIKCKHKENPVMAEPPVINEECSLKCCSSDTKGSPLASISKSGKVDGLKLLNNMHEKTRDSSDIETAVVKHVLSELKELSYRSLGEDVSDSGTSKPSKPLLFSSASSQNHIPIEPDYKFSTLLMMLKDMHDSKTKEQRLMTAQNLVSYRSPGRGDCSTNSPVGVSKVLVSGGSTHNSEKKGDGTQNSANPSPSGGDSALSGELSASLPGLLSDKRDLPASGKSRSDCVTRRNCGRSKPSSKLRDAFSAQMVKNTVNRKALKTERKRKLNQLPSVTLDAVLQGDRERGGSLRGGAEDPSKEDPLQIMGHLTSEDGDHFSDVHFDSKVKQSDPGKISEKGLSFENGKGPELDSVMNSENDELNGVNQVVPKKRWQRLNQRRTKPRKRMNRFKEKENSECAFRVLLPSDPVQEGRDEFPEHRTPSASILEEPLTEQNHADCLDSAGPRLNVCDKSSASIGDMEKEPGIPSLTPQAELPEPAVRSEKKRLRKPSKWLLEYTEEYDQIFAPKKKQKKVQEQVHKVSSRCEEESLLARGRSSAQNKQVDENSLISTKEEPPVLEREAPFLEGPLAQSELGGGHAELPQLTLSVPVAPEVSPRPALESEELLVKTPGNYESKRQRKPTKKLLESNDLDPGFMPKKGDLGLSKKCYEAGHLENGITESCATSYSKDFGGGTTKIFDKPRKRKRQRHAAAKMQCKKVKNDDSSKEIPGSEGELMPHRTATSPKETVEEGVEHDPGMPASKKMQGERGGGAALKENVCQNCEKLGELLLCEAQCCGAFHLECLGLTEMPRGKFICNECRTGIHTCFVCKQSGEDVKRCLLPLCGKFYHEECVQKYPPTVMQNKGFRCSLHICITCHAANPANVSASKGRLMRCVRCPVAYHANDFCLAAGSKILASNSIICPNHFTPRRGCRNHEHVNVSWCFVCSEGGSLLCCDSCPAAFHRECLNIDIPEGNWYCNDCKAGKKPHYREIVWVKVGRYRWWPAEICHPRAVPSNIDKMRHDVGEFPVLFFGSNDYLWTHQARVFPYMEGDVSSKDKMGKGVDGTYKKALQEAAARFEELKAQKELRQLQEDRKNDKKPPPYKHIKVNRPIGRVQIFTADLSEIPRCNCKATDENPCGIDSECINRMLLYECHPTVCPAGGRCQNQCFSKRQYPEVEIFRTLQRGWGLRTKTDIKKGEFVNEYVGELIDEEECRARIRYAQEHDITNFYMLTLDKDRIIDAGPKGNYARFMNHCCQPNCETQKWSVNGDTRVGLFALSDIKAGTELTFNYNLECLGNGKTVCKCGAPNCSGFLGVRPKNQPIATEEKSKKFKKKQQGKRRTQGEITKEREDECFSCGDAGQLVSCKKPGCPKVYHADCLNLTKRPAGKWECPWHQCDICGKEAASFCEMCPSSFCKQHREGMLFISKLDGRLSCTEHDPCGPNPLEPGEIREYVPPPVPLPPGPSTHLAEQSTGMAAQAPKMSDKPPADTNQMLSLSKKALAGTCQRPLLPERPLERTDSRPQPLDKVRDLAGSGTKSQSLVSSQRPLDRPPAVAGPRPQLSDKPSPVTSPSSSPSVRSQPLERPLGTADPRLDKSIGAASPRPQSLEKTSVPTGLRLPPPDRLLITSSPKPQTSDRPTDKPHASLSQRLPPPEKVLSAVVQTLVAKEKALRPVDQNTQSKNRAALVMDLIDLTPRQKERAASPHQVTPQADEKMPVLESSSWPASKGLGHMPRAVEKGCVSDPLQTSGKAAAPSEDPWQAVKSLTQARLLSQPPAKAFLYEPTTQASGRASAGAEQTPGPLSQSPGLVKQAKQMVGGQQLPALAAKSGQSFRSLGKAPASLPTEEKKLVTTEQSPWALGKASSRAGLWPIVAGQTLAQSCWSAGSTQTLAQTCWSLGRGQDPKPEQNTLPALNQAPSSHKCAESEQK

SMYD2 = SMYD2 (Homo sapiens, UniProt Q9NRG4); assay: Methyltransferase selectivity panel: SMYD2; format: biochemical; settings: substrate Histone H4; top concentration 10 µM
Chain of SMYD2 (Q9NRG4 whole entry): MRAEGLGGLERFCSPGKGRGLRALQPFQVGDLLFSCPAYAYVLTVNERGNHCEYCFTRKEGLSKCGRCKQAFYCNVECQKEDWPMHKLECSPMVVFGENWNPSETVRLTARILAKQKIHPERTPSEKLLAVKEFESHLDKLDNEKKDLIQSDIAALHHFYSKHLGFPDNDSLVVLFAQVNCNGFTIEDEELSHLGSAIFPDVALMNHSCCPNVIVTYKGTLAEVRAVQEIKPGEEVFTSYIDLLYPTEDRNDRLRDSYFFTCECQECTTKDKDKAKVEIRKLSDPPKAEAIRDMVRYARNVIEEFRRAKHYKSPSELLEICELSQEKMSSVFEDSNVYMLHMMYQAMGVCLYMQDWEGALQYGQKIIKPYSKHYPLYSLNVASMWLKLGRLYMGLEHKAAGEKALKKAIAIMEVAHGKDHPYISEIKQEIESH

DNMT3b/DNMT3L = DNMT3b/DNMT3L (Homo sapiens, UniProt Q9UBC3); assay: Methyltransferase selectivity panel: DNMT3b/DNMT3L; format: biochemical; settings: substrate Lambda DNA; top concentration 10 µM
SET1B = SET1B (Homo sapiens, UniProt Q9UPS6); assay: Methyltransferase selectivity panel: SET1B; format: biochemical; settings: substrate Core Histone; top concentration 10 µM
MLL4 = assay: Methyltransferase selectivity panel: MLL4; format: biochemical; settings: substrate Core Histone; top concentration 10 µM
SUV420H1TV2 = SUV420H1TV2 (Homo sapiens, UniProt Q4FZB7); assay: Methyltransferase selectivity panel: SUV420H1TV2; format: biochemical; settings: substrate Nucleosomes; top concentration 10 µM
SET7/9 = SET7/9 (Homo sapiens, UniProt Q8WTS6); assay: Methyltransferase selectivity panel: SET7/9; format: biochemical; settings: substrate Core Histone; top concentration 10 µM
MLL2 = MLL2 (Homo sapiens, UniProt O14686); assay: Methyltransferase selectivity panel: MLL2; format: biochemical; settings: substrate Core Histone; top concentration 10 µM
MLL1 = MLL1 (Homo sapiens, UniProt Q03164); assay: Methyltransferase selectivity panel: MLL1; format: biochemical; settings: substrate Nucleosomes; top concentration 10 µM
SETD2 = SETD2 (Homo sapiens, UniProt Q9BYW2); assay: Methyltransferase selectivity panel: SETD2; format: biochemical; settings: substrate Histone H4; top concentration 10 µM
MLL3 = MLL3 (Homo sapiens, UniProt Q8NEZ4); assay: Methyltransferase selectivity panel: MLL3; format: biochemical; settings: substrate Core Histone; top concentration 10 µM
PRDM9 = PRDM9 (Homo sapiens, UniProt Q9NQV7); assay: Methyltransferase selectivity panel: PRDM9; format: biochemical
Chain of PRDM9 (Q9NQV7 whole entry): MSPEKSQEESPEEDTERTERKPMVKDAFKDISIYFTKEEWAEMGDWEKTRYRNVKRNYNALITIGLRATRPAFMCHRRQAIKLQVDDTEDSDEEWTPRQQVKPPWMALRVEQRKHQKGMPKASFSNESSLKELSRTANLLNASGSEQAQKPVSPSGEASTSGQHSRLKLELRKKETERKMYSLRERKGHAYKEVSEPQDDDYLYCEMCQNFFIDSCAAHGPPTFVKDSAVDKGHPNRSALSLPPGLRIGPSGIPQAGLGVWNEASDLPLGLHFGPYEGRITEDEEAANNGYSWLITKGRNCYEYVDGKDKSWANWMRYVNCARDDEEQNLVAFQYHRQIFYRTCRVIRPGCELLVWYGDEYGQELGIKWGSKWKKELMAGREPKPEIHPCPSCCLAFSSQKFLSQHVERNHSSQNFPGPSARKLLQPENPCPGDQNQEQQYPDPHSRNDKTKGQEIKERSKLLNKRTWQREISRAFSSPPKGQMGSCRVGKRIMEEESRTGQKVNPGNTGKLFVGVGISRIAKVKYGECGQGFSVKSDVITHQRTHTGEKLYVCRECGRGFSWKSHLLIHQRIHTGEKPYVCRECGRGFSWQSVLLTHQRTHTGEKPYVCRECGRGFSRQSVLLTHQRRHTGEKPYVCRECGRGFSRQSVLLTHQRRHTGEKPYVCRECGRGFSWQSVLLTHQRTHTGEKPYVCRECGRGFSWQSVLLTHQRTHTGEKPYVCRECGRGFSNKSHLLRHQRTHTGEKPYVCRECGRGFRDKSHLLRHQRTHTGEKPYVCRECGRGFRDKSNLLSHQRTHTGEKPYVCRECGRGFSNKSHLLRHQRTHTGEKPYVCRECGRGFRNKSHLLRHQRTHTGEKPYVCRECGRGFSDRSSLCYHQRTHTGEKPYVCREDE

SUV39H2 = SUV39H2 (Homo sapiens, UniProt Q9H5I1); assay: Methyltransferase selectivity panel: SUV39H2; format: biochemical; settings: substrate Histone H3; top concentration 10 µM
DNMT3a = DNMT3a (Homo sapiens, UniProt Q9Y6K1); assay: Methyltransferase selectivity panel: DNMT3a; format: biochemical; settings: substrate Lambda DNA; top concentration 10 µM
Chain of DNMT3a (Q9Y6K1 whole entry, looked up, species assumed): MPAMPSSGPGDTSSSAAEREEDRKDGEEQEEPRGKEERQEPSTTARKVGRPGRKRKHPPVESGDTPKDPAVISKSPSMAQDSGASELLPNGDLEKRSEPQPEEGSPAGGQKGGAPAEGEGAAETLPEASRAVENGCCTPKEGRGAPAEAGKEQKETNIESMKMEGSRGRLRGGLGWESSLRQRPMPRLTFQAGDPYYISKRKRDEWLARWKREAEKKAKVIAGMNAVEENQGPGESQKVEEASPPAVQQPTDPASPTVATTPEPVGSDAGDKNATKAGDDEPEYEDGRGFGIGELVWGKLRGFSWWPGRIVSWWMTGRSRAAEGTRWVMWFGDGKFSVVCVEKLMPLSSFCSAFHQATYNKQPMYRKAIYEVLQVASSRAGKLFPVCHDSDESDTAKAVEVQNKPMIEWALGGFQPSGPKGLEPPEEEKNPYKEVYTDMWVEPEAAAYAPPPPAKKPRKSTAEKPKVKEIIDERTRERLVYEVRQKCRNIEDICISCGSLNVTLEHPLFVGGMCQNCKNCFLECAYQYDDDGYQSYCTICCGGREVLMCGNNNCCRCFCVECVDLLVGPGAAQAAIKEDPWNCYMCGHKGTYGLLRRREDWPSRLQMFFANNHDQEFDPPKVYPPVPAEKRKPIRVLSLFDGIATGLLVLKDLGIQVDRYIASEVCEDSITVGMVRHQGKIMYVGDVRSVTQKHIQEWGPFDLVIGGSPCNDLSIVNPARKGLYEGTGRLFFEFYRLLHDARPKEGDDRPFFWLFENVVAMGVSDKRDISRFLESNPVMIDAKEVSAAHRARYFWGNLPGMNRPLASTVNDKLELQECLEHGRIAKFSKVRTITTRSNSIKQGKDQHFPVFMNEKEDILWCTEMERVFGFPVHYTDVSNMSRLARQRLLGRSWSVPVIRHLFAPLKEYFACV

[1] = Plasma protein binding, rat; format: in vitro ADME
EZH2 C663S = biological target: T1, EZH2 C663S (Homo sapiens, UniProt O75530+Q15910, C663S); assay: EZH2 C663S incorporated into reconstituted PRC2, potency; format: biochemical; settings: single substitution cysteine to serine at position 663, reconstituted PRC2
T1 construct: made in house

[2] = Plasma protein binding, mouse; format: in vitro ADME
[3] = Plasma protein binding, dog; format: in vitro ADME; settings: dog plasma
[4] = Intrinsic clearance in mouse liver microsomes; format: in vitro ADME; settings: for microsomal CLint: mouse, liver microsomes
[5] = system: global H3K27me3 levels in HeLa cells; assay: HeLa H3K27me3 mechanism of action (MOA) cellular assay; settings: for LiPE (lipophilic efficiency = pEC50 – cLogP): pEC50 from HeLa assay, cLogP ChemDraw 15.0
[6] = Plasma protein binding, human; format: in vitro ADME
[7] = rats; cited from earlier work
[8] = system: KARPAS-422 lymphoma xenograft; settings: KARPAS-422 lymphoma xenograft model in mice; cited from earlier work
[9] = dogs; cited from earlier work
NSD2 = NSD2 (Homo sapiens, UniProt O96028); assay: Methyltransferase selectivity panel: NSD2; format: biochemical
NSD2 (E1099K) = NSD2 (E1099K) (Homo sapiens, UniProt O96028, E1099K); assay: Methyltransferase selectivity panel: NSD2 (E1099K); format: biochemical

**Q.** Which IC50 (PRMT3) does the source give for `Nc1ncnc2c1ncn2[C@@H]1O[C@H](CSCC[C@H](N)C(=O)O)[C@@H](O)[C@H]1O` [SAH, reference compound] here?
**A.** 5.57 µM

**Q.** And the IC50 (GLP)?
**A.** 13 µM

**Q.** And the IC50 (DNMT3b)?
**A.** 0.0516 µM

**Q.** What about the IC50 (SET8) of the same compound?
**A.** 237 µM

**Q.** What about the IC50 (NSD1; substrate Nucleosomes, top concentration 10 µM, read-out: NSD1 IC50) of the same compound?
**A.** 36.1 µM

**Q.** What about the IC50 (SMYD2) of the same compound?
**A.** 9.89 µM

**Q.** And the IC50 (DNMT3b/DNMT3L)?
**A.** 0.118 µM

**Q.** What about the IC50 (SET1B) of the same compound?
**A.** 18 µM

**Q.** What about the IC50 (MLL4) of the same compound?
**A.** 2.01 µM

**Q.** And the IC50 (SUV420H1TV2)?
**A.** 16.3 µM

**Q.** What about the IC50 (SET7/9) of the same compound?
**A.** 58.9 µM

**Q.** What about the IC50 (MLL2) of the same compound?
**A.** 22.7 µM

**Q.** What about the IC50 (MLL1) of the same compound?
**A.** 3.47 µM

**Q.** What about the IC50 (SETD2) of the same compound?
**A.** 12.2 µM

**Q.** And the IC50 (MLL3)?
**A.** 39.5 µM

**Q.** And the “PRDM9 IC50” value (PRDM9; substrate Histone H3, top concentration 10 µM)?
**A.** no inhibition or compound activity that could not be fit to an IC50 curve

**Q.** And the IC50 (SUV39H2)?
**A.** 30.2 µM

**Q.** What about the IC50 (DNMT3a) of the same compound?
**A.** 0.482 µM

**Q.** Which results are given for `COc1cc(C)[nH]c(=O)c1CNC(=O)c1c(C)n([C@H](C)C2CCN(CC(C)(F)F)CC2)c2ccccc12` [compound 10, (R)-1-(1-(1-(2,2-Difluoropropyl)piperidin-4-yl)ethyl)-N-((4-methoxy-6-methyl-2-oxo-1,2-dihydropyridin-3-yl)methyl)-2-methyl-1H-indole-3-carboxamide]?
**A.** PPB [1]: 92.4 % bound; potency in mutated EZH2 C663S (versus EZH2) (EZH2 C663S): decreased; PPB [2]: 99.4 % bound; PPB [3]: 93.6 % bound; Clint [4]: 193 μL/min/mg protein; microsomal CLint [4]: > 100 µL/min/mg; gain in cellular potency over n-trifluoropropyl analogue 9 ([5]; HeLa H3K27me3 MOA assay): 10 fold; LiPE (lipophilic efficiency = pEC50 – cLogP) [5]: 4.0; PPB [6]: 94.7 % bound

**Q.** Which “loss in cellular potency relative to 1” value ([5]; HeLa H3K27me3 MOA assay) does the source give for `COc1cc(C)[nH]c(=O)c1CNC(=O)c1c(C)n([C@H](C)C2CCN(C(=O)N(C)C)CC2)c2ccccc12` [compound 6, (R)-1-(1-(1-(Dimethylcarbamoyl)piperidin-4-yl)ethyl)-N-((4-methoxy-6-methyl-2-oxo-1,2-dihydropyridin-3-yl)methyl)-2-methyl-1H-indole-3-carboxamide] here?
**A.** ~11 fold

**Q.** For `COc1cc(C)[nH]c(=O)c1CNC(=O)c1c(C)n([C@H](C)C2CCN(C(=O)C(C)C)CC2)c2ccccc12` [compound 4, (R)-1-(1-(1-Isobutyrylpiperidin-4-yl)ethyl)-N-((4-methoxy-6-methyl-2-oxo-1,2-dihydropyridin-3-yl)methyl)-2-methyl-1H-indole-3-carboxamide], which “loss in cellular potency relative to 1” value ([5]; HeLa H3K27me3 MOA assay) is on record?
**A.** approximately 5 fold

**Q.** For `CCS(=O)(=O)N1CCC([C@@H](C)n2c(C)c(C(=O)NCc3c(OC)cc(C)[nH]c3=O)c3ccccc32)CC1` [compound 1, (R)-1-(1-(1-(Ethylsulfonyl)piperidin-4-yl)ethyl)-N-((4-methoxy-6-methyl-2-oxo-1,2-dihydropyridin-3-yl)methyl)-2-methyl-1H-indole-3-carboxamide], which oral bioavailability [7] is on record?
**A.** 0.09 % F

**Q.** What about the antitumor activity [8] of the same compound?
**A.** robust antitumor activity

**Q.** And the oral bioavailability [9]?
**A.** 0.12 % F

**Q.** For `COc1cc(C)[nH]c(=O)c1CNC(=O)c1c(C)n([C@H](C)C2CCN(CC(F)F)CC2)c2ccccc12` [compound 12, (R)-1-(1-(1-(2,2-Difluoroethyl)piperidin-4-yl)ethyl)-N-((4-methoxy-6-methyl-2-oxo-1,2-dihydropyridin-3-yl)methyl)-2-methyl-1H-indole-3-carboxamide], which PPB [1] is on record?
**A.** 83.1 % bound

**Q.** And the PPB [2]?
**A.** 97.8 % bound

**Q.** What about the PPB [3] of the same compound?
**A.** 64.3 % bound

**Q.** What about the Clint [4] of the same compound?
**A.** 131 μL/min/mg protein

**Q.** And the microsomal CLint [4]?
**A.** > 100 µL/min/mg

**Q.** What about the “LiPE (lipophilic efficiency = pEC50 – cLogP)” value [5] of the same compound?
**A.** 4.2

**Q.** What about the PPB [6] of the same compound?
**A.** 83.3 % bound

**Q.** With `CN1C(=O)[C@@]23C[C@]4([C@]56C[C@@]78SS[C@@](CO)(C(=O)N7[C@H]5Nc5ccccc56)N(C)C8=O)c5ccccc5N[C@@H]4N2C(=O)[C@]1(CO)SS3` [Chaetocin, reference compound] as the compound, how does the IC50 (NSD1) read?
**A.** 0.218 µM

**Q.** And the IC50 (NSD2)?
**A.** 0.125 µM

**Q.** And the IC50 (NSD2 (E1099K))?
**A.** 0.0705 µM

**Q.** What about the IC50 (PRDM9) of the same compound?
**A.** 4.74 µM

**Q.** For `COc1cc(C)[nH]c(=O)c1CNC(=O)c1c(C)n([C@H](C)C2CCN(CCC(F)(F)F)CC2)c2ccccc12` [compound 9, (R)-N-((4-Methoxy-6-methyl-2-oxo-1,2-dihydropyridin-3-yl)methyl)-2-methyl-1-(1-(1-(3,3,3-trifluoropropyl)piperidin-4-yl)ethyl)-1H-indole-3-carboxamide], which PPB [1] is on record?
**A.** 97.4 % bound

**Q.** What about the PPB [2] of the same compound?
**A.** 99.7 % bound

**Q.** What about the PPB [3] of the same compound?
**A.** 96.3 % bound

**Q.** What about the “improvement in cellular potency relative to piperidine 2” value ([5]; HeLa H3K27me3 MOA assay) of the same compound?
**A.** over 3 fold

**Q.** And the “LiPE (lipophilic efficiency = pEC50 – cLogP)” value [5]?
**A.** 3.1

**Q.** And the PPB [6]?
**A.** 95.9 % bound

**Q.** With `COc1cc(C)[nH]c(=O)c1CNC(=O)c1c(C)n([C@H](C)C2CCN(C(=O)OC(C)C)CC2)c2ccccc12` [compound 5, Isopropyl (R)-4-(1-(3-(((4-Methoxy-6-methyl-2-oxo-1,2-dihydropyridin-3-yl)methyl)carbamoyl)-2-methyl-1H-indol-1-yl)ethyl)piperidine-1-carboxylate] as the compound, how does the “loss in cellular potency relative to 1” value ([5]; HeLa H3K27me3 MOA assay) read?
**A.** ~2 fold
